Measurements as given in the Kinase Knowledgebase extract (Sharma et al. 2016).
pIC50: −log10 of the molar value.

The compounds below were run against PIK3CA (human) (UniProt P42336) (assay: Assessment of PIK3CA Kinase Activity).
PIK3CA (human), sequence (P42336 whole entry, looked up): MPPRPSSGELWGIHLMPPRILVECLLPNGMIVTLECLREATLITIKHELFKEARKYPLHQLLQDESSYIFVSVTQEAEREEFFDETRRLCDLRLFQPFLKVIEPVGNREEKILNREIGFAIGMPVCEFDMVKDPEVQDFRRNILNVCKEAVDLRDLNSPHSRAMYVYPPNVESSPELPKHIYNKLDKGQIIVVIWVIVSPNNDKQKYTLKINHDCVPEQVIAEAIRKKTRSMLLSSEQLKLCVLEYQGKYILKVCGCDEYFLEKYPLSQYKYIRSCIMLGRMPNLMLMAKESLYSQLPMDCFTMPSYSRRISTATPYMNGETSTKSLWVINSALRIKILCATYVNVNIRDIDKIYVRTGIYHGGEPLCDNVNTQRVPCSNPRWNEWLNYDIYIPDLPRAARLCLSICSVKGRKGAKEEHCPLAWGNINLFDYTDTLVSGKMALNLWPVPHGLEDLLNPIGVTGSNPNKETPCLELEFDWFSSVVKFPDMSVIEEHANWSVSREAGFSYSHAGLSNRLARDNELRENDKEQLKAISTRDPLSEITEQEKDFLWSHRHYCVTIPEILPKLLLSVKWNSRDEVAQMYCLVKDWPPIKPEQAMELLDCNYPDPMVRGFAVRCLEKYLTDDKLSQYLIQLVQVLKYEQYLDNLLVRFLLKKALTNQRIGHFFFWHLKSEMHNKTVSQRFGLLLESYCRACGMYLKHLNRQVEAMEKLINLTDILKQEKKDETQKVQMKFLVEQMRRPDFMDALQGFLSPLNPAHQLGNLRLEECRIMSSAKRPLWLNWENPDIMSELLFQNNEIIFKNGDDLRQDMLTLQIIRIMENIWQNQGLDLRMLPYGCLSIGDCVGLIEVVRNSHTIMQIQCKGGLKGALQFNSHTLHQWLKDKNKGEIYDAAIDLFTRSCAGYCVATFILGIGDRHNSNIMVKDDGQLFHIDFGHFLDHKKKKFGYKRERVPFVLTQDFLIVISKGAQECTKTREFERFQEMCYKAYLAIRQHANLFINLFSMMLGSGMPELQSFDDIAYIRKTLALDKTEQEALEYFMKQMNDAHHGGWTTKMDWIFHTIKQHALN

`CN(C)[C@@H]1CCN(C(=O)c2ccc(NC(=O)Nc3ccc(-c4nc(N5CCOCC5)c5ccc(C(C)(C)O)cc5n4)cc3)cc2)C1` and `Cc1ccc(-c2ccc3c(N4CCOCC4)nc(-c4ccc(NC(=O)Nc5ccc(C(=O)N6CC[C@H](N(C)C)C6)cc5)cc4)nc3c2)o1` fall in the same range of pIC50: 6.70 to 7.30 for the first, 6.70 to 7.30 for the second.

`Cc1ccc(-c2ccc3c(N4CCOCC4)nc(-c4ccc(NC(=O)Nc5ccc(C(=O)N(C)C)cc5)cc4F)nc3c2)cn1` and `CN(C)C(=O)c1ccc(NC(=O)Nc2ccc(-c3nc(N4CCOCC4)c4ccc(-c5cnc(N(C)C)nc5)cc4n3)c(F)c2)cc1` cannot be ordered by pIC50: greater than 7.30 for the first, greater than 7.30 for the second.

First: COc1ccc(-c2ccc3c(N4CCOCC4)nc(-c4ccc(NC(=O)Nc5ccc(C(=O)N(C)C)c(F)c5)cc4)nc3c2)cn1
Second: COc1ccc(-c2ccc3c(N4CCOCC4)nc(-c4ccc(NC(=O)Nc5ccc(C(=O)N(C)C)cc5F)cc4)nc3c2)cn1
The pIC50 of the first is lower: 6.70 to 7.30 for the first, greater than 7.30 for the second. The second is the more potent here.

`CN(C)C(=O)c1ccc(NC(=O)Nc2ccc(-c3nc(N4CCOCC4)c4ccc(-c5cccs5)cc4n3)cc2)cc1` and `CN(C)C(=O)c1ccc(NC(=O)Nc2ccc(-c3nc(N4CCOCC4)c4ccc(-c5ccsc5)cc4n3)cc2)cc1` cannot be ordered by pIC50: greater than 7.30 for the first, greater than 7.30 for the second.

`CN(C)C(=O)c1ccc(NC(=O)Nc2ccc(-c3nc(N4CCOCC4)c4ncc(-c5cccnc5)cc4n3)cc2)cc1` and `CN(C)C(=O)c1ccc(NC(=O)Nc2ccc(-c3nc(N4CCOCC4)c4ncc(-c5cccnc5)cc4n3)cc2F)cc1` cannot be ordered by pIC50: greater than 7.30 for the first, greater than 7.30 for the second.

Compared with `CN(C)C(=O)c1ccc(NC(=O)Nc2ccc(-c3nc(N4CCOCC4)c4ccccc4n3)cc2)cc1`, `CN(C)C(=O)c1ccc(NC(=O)Nc2ccc(-c3nc(N4CCOCC4)c4ccc(-c5ccc(CO)o5)cc4n3)cc2)cc1` is higher in pIC50: 6.70 to 7.30 for the first, greater than 7.30 for the second. The second is the more potent here.

`CN(C)C(=O)c1ccc(NC(=O)Nc2ccc(-c3nc(N4CCOCC4)c4ncc(-c5cnc(N)nc5)cc4n3)cc2)cc1` and `CN(C)C(=O)c1ccc(NC(=O)Nc2ccc(-c3nc(N4CCOCC4)c4ncc(-c5cnc(N(C)C)nc5)cc4n3)cc2)cc1` cannot be ordered by pIC50: greater than 7.30 for the first, greater than 7.30 for the second.

`CN(C)C(=O)c1ccc(NC(=O)Nc2ccc(-c3nc(N4CCOCC4)c4ncc(-c5cnn(C)c5)cc4n3)cc2)cc1F` and `CN(C)C(=O)c1ccc(NC(=O)Nc2ccc(-c3nc(N4CCOCC4)c4ncc(-c5cncnc5)cc4n3)cc2)cc1F` cannot be ordered by pIC50: greater than 7.30 for the first, greater than 7.30 for the second.

`CC(=O)Nc1ccc(NC(=O)Nc2ccc(-c3nc(N4CCOCC4)c4ncc(-c5cccnc5F)cc4n3)cc2)cc1` and `CN(C)C(=O)c1ccc(NC(=O)Nc2ccc(-c3nc(N4CCOCC4)c4ncc(-c5cccnc5F)cc4n3)cc2)cc1` cannot be ordered by pIC50: greater than 7.30 for the first, greater than 7.30 for the second.

`CC(=O)Nc1cncc(-c2ccc3c(N4CCOCC4)nc(-c4ccc(NC(=O)Nc5ccc(C(=O)N(C)C)cc5)cc4)nc3c2)c1` and `CN(C)C(=O)c1ccc(NC(=O)Nc2ccc(-c3nc(N4CCOCC4)c4ccc(-c5cncc(S(C)(=O)=O)c5)cc4n3)cc2)cc1` cannot be ordered by pIC50: greater than 7.30 for the first, greater than 7.30 for the second.

`CN(C)C(=O)c1ccc(NC(=O)Nc2ccc(-c3nc(N4CCOCC4)c4ccc(-c5cnc(N(C)C)nc5)cc4n3)cc2)cc1` and `COc1ncc(-c2ccc3c(N4CCOCC4)nc(-c4ccc(NC(=O)Nc5ccc(C(=O)N(C)C)cc5)cc4)nc3c2)cn1` cannot be ordered by pIC50: greater than 7.30 for the first, greater than 7.30 for the second.

`CN1CCN(C(=O)c2ccc(NC(=O)Nc3ccc(-c4nc(N5CCOCC5)c5ncc(-c6cncnc6)cc5n4)cc3)cc2)CC1` and `CN1CCN(C(=O)c2ccc(NC(=O)Nc3ccc(-c4nc(N5CCOCC5)c5ccc(-c6cccnc6)cc5n4)cc3)cc2)CC1` cannot be ordered by pIC50: greater than 7.30 for the first, greater than 7.30 for the second.

Compared with `CN1CCN(C(=O)c2ccc(NC(=O)Nc3ccc(-c4nc(N5CCOCC5)c5ccc(-c6ccncc6)cc5n4)cc3)cc2)CC1`, `CN1CCN(C(=O)c2ccc(NC(=O)Nc3ccc(-c4nc(N5CCOCC5)c5ccc(-c6ccsc6)cc5n4)cc3)cc2)CC1` is lower in pIC50: greater than 7.30 for the first, 6.70 to 7.30 for the second. The first is the more potent here.

`Cc1ccncc1-c1ccc2c(N3CCOCC3)nc(-c3ccc(NC(=O)Nc4ccc(C(=O)N5CCC(N(C)C)CC5)cc4)cc3)nc2c1` and `CN1CCN(C(=O)c2ccc(NC(=O)Nc3ccc(-c4nc(N5CCOCC5)c5ccc(-c6cccnc6F)cc5n4)cc3)cc2)CC1` cannot be ordered by pIC50: greater than 7.30 for the first, greater than 7.30 for the second.

`CN(C)C(=O)c1ccc(NC(=O)Nc2ccc(-c3nc(N4CCOCC4)c4ncc(-c5cncnc5)cc4n3)cc2)c(F)c1` and `CN(C)C(=O)c1ccc(NC(=O)Nc2ccc(-c3nc(N4CCOCC4)c4ncc(-c5cncnc5)cc4n3)cc2F)cc1` cannot be ordered by pIC50: greater than 7.30 for the first, greater than 7.30 for the second.

`CN(C)[C@H]1CCN(C(=O)c2ccc(NC(=O)Nc3ccc(-c4nc(N5CCOCC5)c5ccc(-c6cncnc6)cc5n4)cc3F)cc2)C1` and `N[C@@H]1CCN(C(=O)c2ccc(NC(=O)Nc3ccc(-c4nc(N5CCOCC5)c5ccc(-c6cncnc6)cc5n4)cc3F)cc2)C1` cannot be ordered by pIC50: greater than 7.30 for the first, greater than 7.30 for the second.

First: CN(C)C(=O)c1ccc(NC(=O)Nc2ccc(-c3nc(N4CCOCC4)c4cc(F)c(-c5cccnc5)cc4n3)cn2)cc1
Second: CN(C)C(=O)c1ccc(NC(=O)Nc2ccc(-c3nc(N4CCOCC4)c4cc(F)c(-c5cccnc5)cc4n3)cc2F)cc1
The pIC50 of the first is higher: greater than 7.30 for the first, 6.70 to 7.30 for the second. The first is the more potent here.

Compared with `CS(=O)(=O)c1cccc(-c2ccc3c(N4CCOCC4)nc(-c4ccc(NC(=O)Nc5ccc(C(N)=O)cc5)cc4)nc3c2)c1`, `CNC(=O)c1ccc(NC(=O)Nc2ccc(-c3nc(N4CCOCC4)c4ccc(-c5cccc(S(C)(=O)=O)c5)cc4n3)cc2)cc1` is higher in pIC50: 6.70 to 7.30 for the first, greater than 7.30 for the second. The second is the more potent here.

`CN(C)C(=O)c1ccc(NC(=O)Nc2ccc(-c3nc(N4CCOCC4)c4ccc(-c5cccnc5F)cc4n3)cc2F)cc1` and `CN(C)C(=O)c1ccc(NC(=O)Nc2ccc(-c3nc(N4CCOCC4)c4ncc(-c5cccnc5F)cc4n3)cc2F)cc1` cannot be ordered by pIC50: greater than 7.30 for the first, greater than 7.30 for the second.

`CN(C)C(=O)c1ccc(NC(=O)Nc2ccc(-c3nc(N4CCOCC4)c4ccc(-c5cccc(N(C)C)c5)cc4n3)cc2)cc1` and `CN(C)C(=O)c1ccc(NC(=O)Nc2ccc(-c3nc(N4CCOCC4)c4ccc(-c5ccnc(F)c5)cc4n3)cc2)cc1` cannot be ordered by pIC50: greater than 7.30 for the first, greater than 7.30 for the second.

First: CN(C)C(=O)c1ccc(NC(=O)Nc2ccc(-c3nc(N4CCOCC4)c4cc(F)c(-c5cccnc5F)cc4n3)cc2)cc1
Second: CN(C)C(=O)c1ccc(NC(=O)Nc2ccc(-c3nc(N4CCOCC4)c4ccc(-c5cccnc5F)cc4n3)cc2)cc1F
The pIC50 of the first is higher: greater than 7.30 for the first, 6.70 to 7.30 for the second. The first is the more potent here.

`N[C@H]1CCN(C(=O)c2ccc(NC(=O)Nc3ccc(-c4nc(N5CCOCC5)c5ccc(-c6cncnc6)cc5n4)cc3)cc2)C1` and `CN1CCN(C(=O)c2ccc(NC(=O)Nc3ccc(-c4nc(N5CCOCC5)c5ccc(-c6ccco6)cc5n4)cc3)cc2)CC1` cannot be ordered by pIC50: greater than 7.30 for the first, greater than 7.30 for the second.

`CN(C)C(=O)c1ccc(NC(=O)Nc2ccc(-c3nc(N4CCOCC4)c4ncc(-c5cnc(N)nc5)cc4n3)cc2F)cc1` and `COc1ncc(-c2cnc3c(N4CCOCC4)nc(-c4ccc(NC(=O)Nc5ccc(C(=O)N(C)C)cc5)c(F)c4)nc3c2)cn1` cannot be ordered by pIC50: greater than 7.30 for the first, greater than 7.30 for the second.

`CN(C)[C@H]1CCN(C(=O)c2ccc(NC(=O)Nc3ccc(-c4nc(N5CCOCC5)c5ncc(-c6cnn(C)c6)cc5n4)cc3F)cc2)C1` and `CN(C)C(=O)c1ccc(NC(=O)Nc2ccc(-c3nc(N4CCOCC4)c4ccc(-c5cnn(C)c5)cc4n3)cc2F)cc1` cannot be ordered by pIC50: greater than 7.30 for the first, greater than 7.30 for the second.

First: CN(C)C(=O)c1ccc(NC(=O)Nc2ccc(-c3nc(N4CCOCC4)c4ncc(-c5ccc(CO)o5)cc4n3)cc2F)cc1
Second: CN(C)C(=O)c1ccc(NC(=O)Nc2ccc(-c3nc(N4CCOCC4)c4ccc(-c5ccco5)cc4n3)cc2F)cc1
The pIC50 of the first is higher: greater than 7.30 for the first, 6.70 to 7.30 for the second.

First: CN(C)C(=O)c1ccc(NC(=O)Nc2ccc(-c3nc(N4CCOCC4)c4ncc(-c5cccc(S(C)(=O)=O)c5)cc4n3)cc2)cc1
Second: CN(C)C(=O)c1ccc(NC(=O)Nc2ccc(-c3nc(N4CCOCC4)c4ccc(-c5cccc(S(C)(=O)=O)c5)cc4n3)cc2)cn1
The pIC50 of the first is higher: greater than 7.30 for the first, 6.70 to 7.30 for the second.

`Cc1noc(C)c1-c1ccc2c(N3CCOCC3)nc(-c3ccc(NC(=O)Nc4ccc(C(=O)N5CC[C@H](N(C)C)C5)cc4)c(F)c3)nc2c1` and `Cc1noc(C)c1-c1ccc2c(N3CCOCC3)nc(-c3ccc(NC(=O)Nc4ccc(C(=O)N(C)C)c(F)c4)cc3)nc2c1` fall in the same range of pIC50: 6.70 to 7.30 for the first, 6.70 to 7.30 for the second.

`CN(C)C(=O)c1ccc(NC(=O)Nc2ccc(-c3nc(N4CCOCC4)c4ccc(-c5ccccn5)cc4n3)cc2)c(F)c1` and `CN(C)C(=O)c1ccc(NC(=O)Nc2ccc(-c3nc(N4CCOCC4)c4ccc(-c5ccco5)cc4n3)cc2)c(F)c1` cannot be ordered by pIC50: greater than 7.30 for the first, greater than 7.30 for the second.

First: CN(C)C(=O)c1ccc(NC(=O)Nc2ccc(-c3nc(N4CCOCC4)c4cc(F)c(-c5cncnc5)cc4n3)cc2)cc1
Second: CN(C)C(=O)c1ccc(NC(=O)Nc2ccc(-c3nc(N4CCOCC4)c4cc(F)c(-c5cncnc5)cc4n3)cc2)c(F)c1
The pIC50 of the first is higher: greater than 7.30 for the first, 6.70 to 7.30 for the second.

First: CN1CCN(C(=O)c2ccc(NC(=O)Nc3ccc(-c4nc(N5CCOCC5)c5ccc(-c6cccc(S(C)(=O)=O)c6)cc5n4)cc3)cc2)CC1
Second: CN1CCN(C(=O)c2ccc(NC(=O)Nc3ccc(-c4nc(N5CCOCC5)c5ccc(-c6ccncc6)cc5n4)cc3F)cc2)CC1
The pIC50 of the first is higher: greater than 7.30 for the first, 6.70 to 7.30 for the second. The first is the more potent here.

`Cc1ccc(-c2ccc3c(N4CCOCC4)nc(-c4ccc(NC(=O)Nc5ccc(C(=O)N(C)C)nc5)c(F)c4)nc3c2)o1` and `COc1ccc2c(N3CCOCC3)nc(-c3ccc(NC(=O)Nc4ccc(C(=O)N(C)C)cc4)c(F)c3)nc2c1` fall in the same range of pIC50: 6.70 to 7.30 for the first, 6.70 to 7.30 for the second.

Compared with `CC(O)c1ccc(-c2ccc3c(N4CCOCC4)nc(-c4ccc(NC(=O)Nc5ccc(C(=O)N(C)C)cc5)cc4F)nc3c2)o1` (configuration not stated), `CC(=O)c1ccc(-c2ccc3c(N4CCOCC4)nc(-c4ccc(NC(=O)Nc5ccc(C(=O)N(C)C)c(F)c5)cc4)nc3c2)o1` is higher in pIC50: 6.70 to 7.30 for the first, greater than 7.30 for the second. The second is the more potent here.

`Cc1noc(C)c1-c1ccc2c(N3CCOCC3)nc(-c3ccc(NC(=O)Nc4ccc(C(=O)N(C)C)cc4)cc3)nc2c1` and `Cc1ccc(-c2cnc3c(N4CCOCC4)nc(-c4ccc(NC(=O)Nc5ccc(C(=O)N(C)C)cc5)cc4)nc3c2)o1` cannot be ordered by pIC50: greater than 7.30 for the first, greater than 7.30 for the second.

Compared with `COc1ncc(-c2ccc3c(N4CCOCC4)nc(-c4ccc(NC(=O)Nc5ccc(C(=O)N(C)C)cc5)c(F)c4)nc3c2)cn1`, `CN(C)C(=O)c1ccc(NC(=O)Nc2ccc(-c3nc(N4CCOCC4)c4ccc(-c5cnn(C)c5)cc4n3)cn2)cc1` is higher in pIC50: 6.70 to 7.30 for the first, greater than 7.30 for the second.

Compared with `CN(C)C(=O)c1ccc(NC(=O)Nc2ccc(-c3nc(N4CCOCC4)c4cc(F)c(-c5cnn(C)c5)cc4n3)cc2)cc1`, `CN(C)C(=O)c1ccc(NC(=O)Nc2ccc(-c3nc(N4CCOCC4)c4cc(F)c(-c5cnn(C)c5)cc4n3)cc2F)cc1` is lower in pIC50: greater than 7.30 for the first, 6.70 to 7.30 for the second.

`COc1cc2nc(-c3ccc(NC(=O)Nc4ccc(C(=O)N(C)C)cc4)cc3)nc(N3CCOCC3)c2cc1OC` and `CN(C)CCNC(=O)c1ccc2c(N3CCOCC3)nc(-c3ccc(NC(=O)Nc4ccc(C(=O)N(C)C)cc4)cc3)nc2c1` fall in the same range of pIC50: 6.70 to 7.30 for the first, 6.70 to 7.30 for the second.
